The record followed here is ChEMBL document CHEMBL1201862, “PubChem BioAssay data set” (2004).

Molecules are shown by their SMILES. The source made the active and inactive calls. Bounds are passed on as bounds.

Assay [1] deals with T1, Sentrin-specific protease 6 (Homo sapiens, UniProt Q9GZR1).
T1 sequence (Q9GZR1 whole entry): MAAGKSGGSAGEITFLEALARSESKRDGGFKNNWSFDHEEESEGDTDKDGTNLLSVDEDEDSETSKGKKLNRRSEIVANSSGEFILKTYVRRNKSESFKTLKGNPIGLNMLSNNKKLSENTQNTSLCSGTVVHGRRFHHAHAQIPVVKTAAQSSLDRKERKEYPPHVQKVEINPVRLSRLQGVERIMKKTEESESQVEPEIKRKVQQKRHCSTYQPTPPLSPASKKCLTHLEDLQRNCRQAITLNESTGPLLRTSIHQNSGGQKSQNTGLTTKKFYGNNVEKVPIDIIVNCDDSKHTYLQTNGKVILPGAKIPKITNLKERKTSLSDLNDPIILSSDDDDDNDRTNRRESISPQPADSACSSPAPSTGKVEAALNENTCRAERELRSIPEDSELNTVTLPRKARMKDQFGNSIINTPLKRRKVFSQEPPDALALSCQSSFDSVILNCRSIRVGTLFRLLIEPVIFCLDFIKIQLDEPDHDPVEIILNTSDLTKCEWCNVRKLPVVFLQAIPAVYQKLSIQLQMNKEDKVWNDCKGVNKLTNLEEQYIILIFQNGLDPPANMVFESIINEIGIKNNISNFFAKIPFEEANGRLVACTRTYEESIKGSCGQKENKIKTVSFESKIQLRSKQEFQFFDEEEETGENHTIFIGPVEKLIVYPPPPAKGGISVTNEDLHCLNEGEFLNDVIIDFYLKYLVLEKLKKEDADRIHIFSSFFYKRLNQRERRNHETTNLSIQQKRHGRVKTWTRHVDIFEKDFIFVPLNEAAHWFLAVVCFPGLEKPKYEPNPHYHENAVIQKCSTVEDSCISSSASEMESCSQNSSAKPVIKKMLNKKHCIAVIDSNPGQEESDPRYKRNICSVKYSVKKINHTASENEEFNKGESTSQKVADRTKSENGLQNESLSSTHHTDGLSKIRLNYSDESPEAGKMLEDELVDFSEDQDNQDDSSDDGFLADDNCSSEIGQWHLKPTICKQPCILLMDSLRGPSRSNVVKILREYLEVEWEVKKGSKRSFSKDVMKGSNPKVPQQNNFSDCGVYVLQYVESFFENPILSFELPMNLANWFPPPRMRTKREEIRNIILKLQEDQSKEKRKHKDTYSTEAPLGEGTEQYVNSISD
The assay is described as follows: SAR Analysis of small molecule inhibitors of Sentrin-specific protease 6 (SENP6) using a Luminescent assay. [Related pubchem assays (depositor defined):AID2582, AID2599]. It is filed as functional.

In assay [2] the target is T2, Caspase-3 (Homo sapiens, UniProt P42574).
T2 sequence (P42574 whole entry): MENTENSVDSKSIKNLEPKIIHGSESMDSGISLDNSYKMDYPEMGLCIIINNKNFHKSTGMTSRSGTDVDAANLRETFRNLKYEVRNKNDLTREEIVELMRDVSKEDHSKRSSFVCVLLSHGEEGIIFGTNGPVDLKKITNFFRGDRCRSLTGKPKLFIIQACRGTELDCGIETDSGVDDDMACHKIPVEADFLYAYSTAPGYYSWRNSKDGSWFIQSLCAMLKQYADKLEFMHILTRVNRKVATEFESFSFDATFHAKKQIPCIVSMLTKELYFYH
Kind of assay: SAR Analysis of small molecule inhibitors of Sentrin-specific proteases (SENPs) using a Caspase-3 Selectivity assay. [Related pubchem assays (depositor defined):AID2540, AID2599, AID434973, AID489001]. Format: functional.

Assay [3] has as its target T3, Sentrin-specific protease 8 (Homo sapiens, UniProt Q96LD8).
T3 sequence (Q96LD8 whole entry): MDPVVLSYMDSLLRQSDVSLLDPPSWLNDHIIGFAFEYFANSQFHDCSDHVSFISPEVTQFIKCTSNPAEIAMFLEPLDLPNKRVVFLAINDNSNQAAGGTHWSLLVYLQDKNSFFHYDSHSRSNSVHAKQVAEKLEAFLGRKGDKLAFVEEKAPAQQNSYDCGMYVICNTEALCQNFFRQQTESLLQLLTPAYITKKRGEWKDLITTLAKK
The assay is described as follows: SENP8 protease inhibitors, SAR follow-up, biochemical, luminescence (AID 504501). It is filed as functional.

For assay [4], the target named is T4, Sentrin-specific protease 7 (Homo sapiens, UniProt Q9BQF6).
T4 sequence (Q9BQF6 whole entry): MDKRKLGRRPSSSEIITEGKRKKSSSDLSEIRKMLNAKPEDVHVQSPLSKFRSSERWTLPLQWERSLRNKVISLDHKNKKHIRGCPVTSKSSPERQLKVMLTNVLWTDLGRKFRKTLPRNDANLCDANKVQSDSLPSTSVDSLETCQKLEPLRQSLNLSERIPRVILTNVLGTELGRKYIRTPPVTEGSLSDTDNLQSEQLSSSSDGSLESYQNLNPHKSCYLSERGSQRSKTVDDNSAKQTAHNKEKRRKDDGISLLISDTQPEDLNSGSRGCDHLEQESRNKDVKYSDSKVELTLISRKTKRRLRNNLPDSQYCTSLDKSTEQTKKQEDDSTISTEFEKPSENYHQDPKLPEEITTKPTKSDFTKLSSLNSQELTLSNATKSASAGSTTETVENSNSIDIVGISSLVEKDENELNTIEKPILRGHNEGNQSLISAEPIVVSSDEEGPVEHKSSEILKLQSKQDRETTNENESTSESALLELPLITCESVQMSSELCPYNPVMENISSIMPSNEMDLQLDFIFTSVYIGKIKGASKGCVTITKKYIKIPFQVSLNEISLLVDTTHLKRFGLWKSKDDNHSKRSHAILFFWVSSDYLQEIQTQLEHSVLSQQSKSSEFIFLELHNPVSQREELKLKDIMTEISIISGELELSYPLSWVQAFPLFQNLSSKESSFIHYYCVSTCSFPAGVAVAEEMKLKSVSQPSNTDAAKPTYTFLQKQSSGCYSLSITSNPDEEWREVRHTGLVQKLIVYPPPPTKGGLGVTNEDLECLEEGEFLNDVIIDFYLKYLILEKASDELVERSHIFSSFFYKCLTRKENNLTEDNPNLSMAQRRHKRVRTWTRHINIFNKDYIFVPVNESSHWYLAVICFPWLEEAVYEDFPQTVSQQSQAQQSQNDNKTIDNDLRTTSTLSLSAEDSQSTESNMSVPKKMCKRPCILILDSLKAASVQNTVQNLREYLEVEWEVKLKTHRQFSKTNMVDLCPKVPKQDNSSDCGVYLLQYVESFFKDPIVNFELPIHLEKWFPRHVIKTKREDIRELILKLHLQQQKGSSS
Kind of assay: SENP7 protease inhibitors, SAR follow-up, biochemical, luminescence (AID 504497). It is filed as functional.

In assay [5] the target is Aurora kinase B (Homo sapiens, UniProt Q96GD4). Format: functional.
In assay [6] the target is Aurora kinase A (Homo sapiens, UniProt O14965). It is filed as functional.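 Note: value from the Navigating the Kinome kinase panel profiling, panel entry STK6.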
The target of assay [7] is Vascular endothelial growth factor receptor 2 (Homo sapiens, UniProt P35968). Format: functional.
For assay [8], the target named is High affinity nerve growth factor receptor (Homo sapiens, UniProt P04629). It is filed as functional.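 Note: NTRK1 tested as one member of a kinome-wide profiling panel.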
For assay [9], the target named is T5, Orexin receptor type 2 (Homo sapiens, UniProt O43614). The assay is described as follows: Counterscreen assay for antagonists of the orexin 1 receptor (OX1R; HCRTR1): Homogeneous Time Resolved Fluorescence (HTRF)-based cell-based dose response assay for antagonists of the orexin 2 receptor (OX2R; HCRTR2), run by assay provider. Format: functional.
Assay [10] concerns the target Cytochrome P450 2C9 (Homo sapiens, UniProt P11712).
Assay [11] addresses T5, Orexin receptor type 2. Kind of assay: Counterscreen assay for antagonists of the orexin 1 receptor (OX1R; HCRTR1): Fluorescence-based cell-based dose response assay for antagonists of the orexin 2 receptor (OX2R; HCRTR2), run by assay provider. Format: functional.
Assay [12] addresses T6, Orexin/Hypocretin receptor type 1 (Homo sapiens, UniProt O43613). The assay is described as follows: Homogeneous Time Resolved Fluorescence (HTRF)-based cell-based high throughput dose response assay for antagonists of the orexin 1 receptor (OX1R; HCRTR1). [Related pubchem assays (depositor defined):AID434989, AID435008, AID463079, AID485270, AID492963, AID492964, AID492965, AID493232, AID504717, AID504718]. Format: functional.

Assay [13] addresses T6, Orexin/Hypocretin receptor type 1. The assay is described as follows: Fluorescence-based cell-based high throughput dose response assay for antagonists of the orexin 1 receptor (OX1R; HCRTR1). [Related pubchem assays (depositor defined):AID434989, AID435008, AID463079, AID485270, AID492963, AID492964, AID492965, AID493232, AID504717, AID504718]. It is filed as functional.

Assay [14] relates to CHO-K1. The assay is described as follows: Counterscreen for antagonists of the orexin 1 receptor (OX1R; HCRTR1): Homogeneous time resolved fluorescence (HTRF)-based cell-based dose response assay to identify antagonists of the parental CHO-K1 cell line. [Related pubchem assays (depositor defined):AID434989, AID435008, AID463079, AID485270, AID492963, AID492964, AID492965, AID493232, AID504699, AID504701]. It is filed as functional. Particulars: Cricetulus griseus.

Assay [15] is described as follows: Counterscreen for antagonists of the orexin 1 receptor (OX1R; HCRTR1): Fluorescence-based cell-based high throughput dose response assay to identify antagonists of the parental CHO cell line. [Related pubchem assays (depositor defined):AID434989, AID435008, AID463079, AID485270, AID492963, AID492964, AID492965, AID493232, AID504699, AID504701]. It is filed as functional.

Assay [16] is described as follows: viability loss in Mcl1-dependent HMC-1-8 cells, dose response, selectivity assay for A1 inhibitor project, cell-based, luminescence, dry powder (AID 504415). It is filed as functional. Particulars: Homo sapiens.
The nature of assay [17]: Vero cell cytotoxicity, cytotoxicity control for M. tuberculosis inhibitor project, purified and synthesized samples, set 8 (AID 602431). Particulars: Mycobacterium tuberculosis. It is filed as functional.
The nature of assay [18]: HepG2 cell cytotoxicity, cytotoxicity control, set 6 (AID 602432). It is filed as functional. Particulars: Mycobacterium tuberculosis.
Assay [19] in a line: THP-1 cell cytotoxicity, cytotoxicity control, set 6 (AID 602433). Format: functional. Particulars: Mycobacterium tuberculosis.
Assay [20] has as its target T7, High affinity choline transporter 1 (Homo sapiens, UniProt Q9GZV3).
T7 sequence (Q9GZV3 whole entry): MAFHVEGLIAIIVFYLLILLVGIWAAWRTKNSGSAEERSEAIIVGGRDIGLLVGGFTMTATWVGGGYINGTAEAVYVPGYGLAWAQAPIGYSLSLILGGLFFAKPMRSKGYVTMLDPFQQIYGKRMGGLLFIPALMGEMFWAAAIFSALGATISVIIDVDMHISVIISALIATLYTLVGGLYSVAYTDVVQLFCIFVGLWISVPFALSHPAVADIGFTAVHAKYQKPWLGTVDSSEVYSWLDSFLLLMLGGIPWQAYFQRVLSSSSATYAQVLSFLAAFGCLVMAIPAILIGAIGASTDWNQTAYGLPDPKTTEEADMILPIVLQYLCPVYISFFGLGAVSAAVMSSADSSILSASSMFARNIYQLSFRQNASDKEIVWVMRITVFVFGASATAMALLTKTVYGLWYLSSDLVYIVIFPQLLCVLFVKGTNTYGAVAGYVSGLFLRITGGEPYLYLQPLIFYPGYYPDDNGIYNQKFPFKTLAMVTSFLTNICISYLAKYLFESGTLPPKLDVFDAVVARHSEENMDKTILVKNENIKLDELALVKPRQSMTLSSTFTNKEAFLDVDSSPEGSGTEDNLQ
The assay is described as follows: CHT activators, dose response, cell-based, 10-point CRC, membrane potential dye (AID 602376). It is filed as functional.

T6 sequence (O43613 whole entry): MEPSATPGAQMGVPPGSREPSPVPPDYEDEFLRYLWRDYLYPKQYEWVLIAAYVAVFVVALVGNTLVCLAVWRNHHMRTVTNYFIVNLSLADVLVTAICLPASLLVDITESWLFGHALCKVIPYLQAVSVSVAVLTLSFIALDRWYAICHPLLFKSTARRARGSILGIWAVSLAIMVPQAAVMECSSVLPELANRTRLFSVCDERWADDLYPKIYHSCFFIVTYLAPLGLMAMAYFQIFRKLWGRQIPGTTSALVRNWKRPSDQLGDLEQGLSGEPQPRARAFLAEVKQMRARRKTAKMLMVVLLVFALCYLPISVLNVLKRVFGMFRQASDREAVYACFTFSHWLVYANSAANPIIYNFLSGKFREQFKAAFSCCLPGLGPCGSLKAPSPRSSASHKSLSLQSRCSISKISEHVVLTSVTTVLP
T5 sequence (O43614 whole entry): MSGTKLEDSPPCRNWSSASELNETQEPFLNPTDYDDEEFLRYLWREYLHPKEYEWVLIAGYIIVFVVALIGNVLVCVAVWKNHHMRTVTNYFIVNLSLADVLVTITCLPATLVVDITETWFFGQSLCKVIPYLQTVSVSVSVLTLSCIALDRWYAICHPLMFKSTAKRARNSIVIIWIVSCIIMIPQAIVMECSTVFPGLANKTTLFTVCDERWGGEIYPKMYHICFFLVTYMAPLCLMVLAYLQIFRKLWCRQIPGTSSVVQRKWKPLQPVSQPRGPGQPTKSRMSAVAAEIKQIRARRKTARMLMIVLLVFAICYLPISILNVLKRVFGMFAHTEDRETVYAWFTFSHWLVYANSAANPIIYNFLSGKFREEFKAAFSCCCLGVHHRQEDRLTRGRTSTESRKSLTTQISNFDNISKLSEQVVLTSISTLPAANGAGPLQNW
Sequence of High affinity nerve growth factor receptor (P04629 whole entry): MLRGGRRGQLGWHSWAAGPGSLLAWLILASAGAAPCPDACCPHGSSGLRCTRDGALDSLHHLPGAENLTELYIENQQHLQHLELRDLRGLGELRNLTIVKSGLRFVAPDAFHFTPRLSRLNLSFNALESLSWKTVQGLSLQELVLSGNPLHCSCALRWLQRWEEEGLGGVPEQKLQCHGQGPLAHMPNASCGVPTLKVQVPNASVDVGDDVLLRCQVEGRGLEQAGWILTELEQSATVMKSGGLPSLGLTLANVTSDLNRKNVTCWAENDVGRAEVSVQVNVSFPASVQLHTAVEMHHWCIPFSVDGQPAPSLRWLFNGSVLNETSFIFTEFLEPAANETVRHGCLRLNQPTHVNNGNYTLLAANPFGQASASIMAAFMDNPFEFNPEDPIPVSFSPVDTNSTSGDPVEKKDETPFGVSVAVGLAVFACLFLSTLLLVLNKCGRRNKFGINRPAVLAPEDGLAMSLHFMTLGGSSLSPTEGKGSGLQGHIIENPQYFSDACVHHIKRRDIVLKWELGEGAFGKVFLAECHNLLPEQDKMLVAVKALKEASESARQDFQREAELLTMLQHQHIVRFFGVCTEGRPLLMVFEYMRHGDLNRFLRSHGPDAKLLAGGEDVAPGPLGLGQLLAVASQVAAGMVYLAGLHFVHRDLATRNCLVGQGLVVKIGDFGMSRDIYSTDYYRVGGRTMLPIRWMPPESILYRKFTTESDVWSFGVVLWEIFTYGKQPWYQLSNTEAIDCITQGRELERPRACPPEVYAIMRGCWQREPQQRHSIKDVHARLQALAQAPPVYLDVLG
Sequence of Aurora kinase A (O14965 whole entry): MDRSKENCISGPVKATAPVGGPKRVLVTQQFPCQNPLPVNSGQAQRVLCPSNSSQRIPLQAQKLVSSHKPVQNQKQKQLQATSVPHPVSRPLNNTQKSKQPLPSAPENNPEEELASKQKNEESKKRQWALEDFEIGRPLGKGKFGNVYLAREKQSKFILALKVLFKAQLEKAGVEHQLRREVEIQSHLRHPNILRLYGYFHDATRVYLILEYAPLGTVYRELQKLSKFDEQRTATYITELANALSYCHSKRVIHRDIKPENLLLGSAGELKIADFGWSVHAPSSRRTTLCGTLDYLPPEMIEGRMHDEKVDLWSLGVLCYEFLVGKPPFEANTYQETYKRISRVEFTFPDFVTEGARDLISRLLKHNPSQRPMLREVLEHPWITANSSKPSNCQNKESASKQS
Sequence of Vascular endothelial growth factor receptor 2 (P35968 whole entry): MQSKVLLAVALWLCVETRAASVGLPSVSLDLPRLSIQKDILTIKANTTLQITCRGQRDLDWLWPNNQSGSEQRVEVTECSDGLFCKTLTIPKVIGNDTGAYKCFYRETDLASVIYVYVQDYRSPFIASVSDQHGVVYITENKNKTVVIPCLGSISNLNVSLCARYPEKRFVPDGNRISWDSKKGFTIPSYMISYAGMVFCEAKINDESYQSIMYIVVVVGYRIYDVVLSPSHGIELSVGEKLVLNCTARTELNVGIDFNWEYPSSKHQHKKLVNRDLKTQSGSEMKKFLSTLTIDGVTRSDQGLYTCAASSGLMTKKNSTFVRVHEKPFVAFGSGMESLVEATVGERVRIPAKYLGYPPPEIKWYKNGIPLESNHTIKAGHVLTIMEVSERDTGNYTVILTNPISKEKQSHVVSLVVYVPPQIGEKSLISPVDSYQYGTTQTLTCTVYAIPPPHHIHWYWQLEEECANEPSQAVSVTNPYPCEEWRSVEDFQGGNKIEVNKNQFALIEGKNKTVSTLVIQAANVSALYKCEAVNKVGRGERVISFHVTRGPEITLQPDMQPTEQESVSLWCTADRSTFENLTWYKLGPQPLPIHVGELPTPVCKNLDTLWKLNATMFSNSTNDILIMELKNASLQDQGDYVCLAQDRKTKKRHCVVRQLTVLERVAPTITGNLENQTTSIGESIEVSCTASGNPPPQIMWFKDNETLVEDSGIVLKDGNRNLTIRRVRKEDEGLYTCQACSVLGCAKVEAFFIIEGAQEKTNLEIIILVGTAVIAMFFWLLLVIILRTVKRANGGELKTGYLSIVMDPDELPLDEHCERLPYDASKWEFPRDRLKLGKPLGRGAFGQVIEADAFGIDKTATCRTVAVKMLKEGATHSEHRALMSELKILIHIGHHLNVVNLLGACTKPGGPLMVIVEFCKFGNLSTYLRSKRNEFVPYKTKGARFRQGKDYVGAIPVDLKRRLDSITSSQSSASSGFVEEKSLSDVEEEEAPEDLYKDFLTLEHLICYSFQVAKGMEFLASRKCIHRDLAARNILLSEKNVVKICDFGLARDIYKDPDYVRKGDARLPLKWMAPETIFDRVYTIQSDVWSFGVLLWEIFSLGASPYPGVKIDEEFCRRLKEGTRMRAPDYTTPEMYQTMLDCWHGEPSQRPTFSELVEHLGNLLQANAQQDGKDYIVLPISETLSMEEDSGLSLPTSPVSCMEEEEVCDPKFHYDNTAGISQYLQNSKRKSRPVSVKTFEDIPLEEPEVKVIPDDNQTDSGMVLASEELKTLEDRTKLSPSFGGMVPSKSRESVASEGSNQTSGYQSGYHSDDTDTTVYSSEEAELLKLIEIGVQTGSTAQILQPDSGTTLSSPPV
Sequence of Aurora kinase B (Q96GD4 whole entry): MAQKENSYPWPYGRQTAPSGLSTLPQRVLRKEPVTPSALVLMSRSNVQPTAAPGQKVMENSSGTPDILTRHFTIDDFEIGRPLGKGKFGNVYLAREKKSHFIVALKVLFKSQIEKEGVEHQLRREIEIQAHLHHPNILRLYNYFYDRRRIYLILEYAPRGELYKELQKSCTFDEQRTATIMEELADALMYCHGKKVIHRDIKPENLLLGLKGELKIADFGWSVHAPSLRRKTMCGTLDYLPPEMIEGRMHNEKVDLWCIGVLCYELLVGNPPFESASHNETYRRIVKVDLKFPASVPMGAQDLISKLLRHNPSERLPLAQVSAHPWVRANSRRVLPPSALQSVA
Sequence of Cytochrome P450 2C9 (P11712 whole entry): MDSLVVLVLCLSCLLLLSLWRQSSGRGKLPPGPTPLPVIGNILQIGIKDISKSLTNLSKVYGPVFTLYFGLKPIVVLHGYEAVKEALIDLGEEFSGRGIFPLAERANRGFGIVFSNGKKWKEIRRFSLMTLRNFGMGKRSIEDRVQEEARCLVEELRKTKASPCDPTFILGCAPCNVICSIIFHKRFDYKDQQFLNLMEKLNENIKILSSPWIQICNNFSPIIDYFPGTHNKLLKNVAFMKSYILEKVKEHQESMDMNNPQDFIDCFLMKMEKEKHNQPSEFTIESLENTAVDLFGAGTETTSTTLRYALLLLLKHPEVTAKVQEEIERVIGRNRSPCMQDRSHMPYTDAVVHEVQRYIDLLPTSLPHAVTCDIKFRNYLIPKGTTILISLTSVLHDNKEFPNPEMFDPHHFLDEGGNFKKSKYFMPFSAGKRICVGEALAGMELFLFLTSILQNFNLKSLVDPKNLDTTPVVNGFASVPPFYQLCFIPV

Consider `CC(C)(C)CC(=O)Nc1ccc(-c2nc3cc(Cl)ccc3s2)cc1`, for which the IC50 in assay [1], in assay [2], in assay [3] and in [4] was > 99 µM (inactive) throughout.

As for `CCS(=O)(=O)c1ccc(-c2ccc(-c3n[nH]c4c3Cc3cc(O)c(OC)cc3-4)cc2)cc1`, the Ki was 0.000794 µM (active) in [5], 0.794 µM (active) in assay [6], 1.26 µM (active) in assay [7] and 3.98 µM (active) in assay [8].

For the compound `CCn1c(SCC(=O)c2ccc3ccccc3c2)nnc1-c1cccs1`, the IC50 was > 50 µM (inactive) in assay [9]; > 88.8 µM (inactive) in [11]; 6.66 µM (active) in [12]; 17.6 µM (inactive) in assay [13]; > 66.2 µM (inactive) in assay [14]; > 49.8 µM (inactive) in assay [15]. Moreover, in assay [10], the AC50 is 17.8 µM (inconclusive).

`Cn1c(=O)c([N+](=O)[O-])c(Nc2ccc(Cl)cc2)c2ccccc21`: the AC50 in [16] is > 350 µM (inactive).

On to `COc1ccc(N2CCN(C(=O)c3ccc(CNC(=O)NCc4ccc(Cl)cc4)cc3)CC2)cc1`, for which the CC50 in [17] is 29.4 µM (active); in [18] it was > 50 µM (active); in [19], > 100 µM (inconclusive).

Take `CC(C)C(=O)N1CCN(c2ccccc2NC(=O)c2ccc(C#N)cc2F)CC1`: in assay [20], the EC50 is 12.9 µM (active).
